For orientation: IC50 means the concentration that gives 50% inhibition. Lower therefore signals inhibition by little substance.

The assay deals with ROCK2 (human) (UniProt O75116). Put plainly: Inhibition of ROCK2 Kinase Activity.
Sequence of ROCK2 (human) (O75116 whole entry, looked up): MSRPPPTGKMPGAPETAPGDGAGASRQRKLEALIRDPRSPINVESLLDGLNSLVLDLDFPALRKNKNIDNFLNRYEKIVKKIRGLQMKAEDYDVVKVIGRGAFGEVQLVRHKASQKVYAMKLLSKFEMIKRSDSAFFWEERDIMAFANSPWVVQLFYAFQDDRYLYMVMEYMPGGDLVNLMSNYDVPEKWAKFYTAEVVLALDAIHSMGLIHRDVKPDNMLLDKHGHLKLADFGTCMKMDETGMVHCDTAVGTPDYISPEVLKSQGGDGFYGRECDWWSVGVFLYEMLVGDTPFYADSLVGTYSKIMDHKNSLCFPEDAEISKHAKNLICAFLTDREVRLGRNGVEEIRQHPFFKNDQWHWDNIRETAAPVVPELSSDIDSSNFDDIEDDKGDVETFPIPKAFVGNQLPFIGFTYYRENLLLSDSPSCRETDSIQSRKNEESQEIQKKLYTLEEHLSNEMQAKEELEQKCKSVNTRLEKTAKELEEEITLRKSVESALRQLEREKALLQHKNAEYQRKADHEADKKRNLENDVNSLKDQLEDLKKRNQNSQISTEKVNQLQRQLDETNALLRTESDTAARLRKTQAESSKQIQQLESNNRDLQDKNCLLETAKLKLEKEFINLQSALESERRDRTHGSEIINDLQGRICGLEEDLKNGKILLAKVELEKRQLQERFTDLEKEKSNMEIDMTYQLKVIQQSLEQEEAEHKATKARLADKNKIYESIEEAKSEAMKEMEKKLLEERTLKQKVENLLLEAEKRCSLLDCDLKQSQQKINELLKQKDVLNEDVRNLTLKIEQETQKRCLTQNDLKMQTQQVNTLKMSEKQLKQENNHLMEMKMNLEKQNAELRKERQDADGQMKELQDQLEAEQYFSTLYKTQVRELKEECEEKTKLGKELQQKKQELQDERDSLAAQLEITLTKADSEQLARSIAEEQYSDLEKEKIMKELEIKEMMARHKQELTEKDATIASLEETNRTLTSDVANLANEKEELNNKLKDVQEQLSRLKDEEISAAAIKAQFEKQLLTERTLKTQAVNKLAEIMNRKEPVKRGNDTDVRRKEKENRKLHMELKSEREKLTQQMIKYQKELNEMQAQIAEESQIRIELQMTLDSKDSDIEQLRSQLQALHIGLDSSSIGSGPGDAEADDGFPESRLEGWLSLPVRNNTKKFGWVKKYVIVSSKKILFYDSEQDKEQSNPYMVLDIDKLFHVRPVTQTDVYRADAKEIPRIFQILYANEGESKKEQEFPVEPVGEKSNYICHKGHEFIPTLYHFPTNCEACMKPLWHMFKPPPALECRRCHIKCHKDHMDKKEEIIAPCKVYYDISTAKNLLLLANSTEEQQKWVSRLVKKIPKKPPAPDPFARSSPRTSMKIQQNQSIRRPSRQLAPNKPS

Molecule `COc1ccc(Cl)cc1NC(=O)NCC(N)c1ccc(C(=O)Nc2ccncc2)cc1` (stereo not given) yielded a 50% inhibitory concentration (IC50) of 50 to 500 nM. As to `NC(CC(=O)NCc1ccc(-c2cccs2)cc1)c1ccc(C(=O)Nc2ccncc2)cc1` (stereo not given), the half-maximal inhibitory concentration (IC50) is 50 to 500 nM. Under `COCC(=O)NCC(N)c1ccc(C(=O)Nc2ccncc2)cc1` (stereo not given) stands 500 to 5000 nM. Molecule `CCCCC(C)CCC(=O)NCC(N)c1ccc(C(=O)Nc2ccncc2)cc1` (stereo not given) yielded an IC50 of 50 to 500 nM. Under `NC(c1ccc(C(=O)Nc2ccncc2)cc1)C1CCCN1C(=O)Cc1cccc(Br)c1` (stereo not given) stands 50 to 500 nM. `NC(CC(=O)NCC1CC1)c1ccc(C(=O)Nc2ccncc2)cc1` (stereo not given) had an IC50 of 50 to 500 nM. The value for `CN(CC(N)c1ccc(C(=O)Nc2ccncc2)cc1)C(=O)Cc1csc2ccccc12` (stereo not given) was 500 to 5000 nM. Take `NC(c1ccc(C(=O)Nc2ccncc2)cc1)C1CCCN1C(=O)C1CCCc2sccc21` (stereo not given): the IC50 was 50 to 500 nM. The value for `NC(CC(=O)NCCc1ccc2c(c1)OCO2)c1ccc(C(=O)Nc2ccncc2)cc1` (stereo not given) was 50 to 500 nM. Under `CC[C@@H](NC(=O)CC(N)c1ccc(C(=O)Nc2ccncc2)cc1)c1ccc(C)cc1` (stereo not given in full) stands 50 to 500 nM; under `Cc1ccc(C)c(CC(=O)NCC(N)c2ccc(C(=O)Nc3ccncc3)cc2)c1` (stereo not given), 500 to 5000 nM.

The molecule `NC(CC(=O)NCCc1ccccc1Cl)c1ccc(C(=O)Nc2ccncc2)cc1` (stereo not given) came in with a half-maximal inhibitory concentration (IC50) of 50 to 500 nM.

Consider `NC(CNC(=O)C1CCOC1)c1ccc(C(=O)Nc2ccncc2)cc1` (stereo not given), for which the concentration for half-maximal inhibition (IC50) was 500 to 5000 nM. The value for `CN(CC(N)c1ccc(C(=O)Nc2ccncc2)cc1)C(=O)Cc1ccc(Cl)cc1Cl` (stereo not given) was 500 to 5000 nM; that for `NC(CC(=O)NCCc1c(Cl)cccc1Cl)c1ccc(C(=O)Nc2ccncc2)cc1` (stereo not given) was 50 to 500 nM; that for `CN(CC(N)c1ccc(C(=O)Nc2ccncc2)cc1)C(=O)C1CCc2ccccc21` (stereo not given) was 500 to 5000 nM.

On to `NC(CC(=O)N[C@H]1CCc2ccccc21)c1ccc(C(=O)Nc2ccncc2)cc1` (stereo not given in full), for which the IC50 is 50 to 500 nM.

Molecule `NC(CNC(=O)c1ccoc1)c1ccc(C(=O)Nc2ccncc2)cc1` (stereo not given) yielded a concentration for half-maximal inhibition (IC50) of 50 to 500 nM.

`CN(CC(N)c1ccc(C(=O)Nc2ccncc2)cc1)C(=O)C(C)(C)c1ccc(F)c(Cl)c1` (stereo not given) returned an IC50 of 500 to 5000 nM. The value for `CN(CC(N)c1ccc(C(=O)Nc2ccncc2)cc1)C(=O)Cc1ccc(C(F)(F)F)cc1` (stereo not given) was 500 to 5000 nM; that for `NC(CC(=O)NCc1ccccc1C(F)(F)F)c1ccc(C(=O)Nc2ccncc2)cc1` (stereo not given) was 50 to 500 nM; that for `Cc1cccc(CNC(=O)CC(N)c2ccc(C(=O)Nc3ccncc3)cc2)c1` (stereo not given) was 50 to 500 nM. `NC(CC(=O)NC(c1ccccc1)c1ccccc1)c1ccc(C(=O)Nc2ccncc2)cc1` (stereo not given): the half-inhibitory concentration (IC50) lay within 50 to 500 nM. The molecule `Cc1cccc(CC(=O)NCC(N)c2ccc(C(=O)Nc3ccncc3)cc2)c1` (stereo not given) came in with a half-inhibitory concentration (IC50) of 50 to 500 nM.

As for `CC(C)(NC(=O)CC(N)c1ccc(C(=O)Nc2ccncc2)cc1)c1ccccc1` (stereo not given), the half-maximal inhibitory concentration (IC50) lay within 50 to 500 nM. `NC(CNC(=O)[C@@H]1CCC(=O)N1)c1ccc(C(=O)Nc2ccncc2)cc1` (stereo not given in full) returned an IC50 of 500 to 5000 nM. Under `NC(CNC(=O)C1CCSc2ccccc21)c1ccc(C(=O)Nc2ccncc2)cc1` (stereo not given) stands 50 to 500 nM; under `COc1cccc(CC(=O)N2CCCC2C(N)c2ccc(C(=O)Nc3ccncc3)cc2)c1` (stereo not given), 500 to 5000 nM. In the case of `NC(c1ccc(C(=O)Nc2ccncc2)cc1)C1CCCN1C(=O)C1CCCc2ccccc21` (stereo not given), the IC50 lay within 500 to 5000 nM. Regarding `NC(CNC(=O)c1ccncc1)c1ccc(C(=O)Nc2ccncc2)cc1` (stereo not given), the IC50 lay in the range of 500 to 5000 nM. `CN(CC(N)c1ccc(C(=O)Nc2ccncc2)cc1)C(=O)C1(c2ccc(Cl)c(Cl)c2)CC1` (stereo not given) came in with an IC50 of 500 to 5000 nM. Under `NC(c1ccc(C(=O)Nc2ccncc2)cc1)C1CCCN1C(=O)Cc1c(Cl)cccc1Cl` (stereo not given) stands 500 to 5000 nM. In the case of `CN(C)CCCC(=O)NCC(N)c1ccc(C(=O)Nc2ccncc2)cc1` (stereo not given), the IC50 lay in the range of 500 to 5000 nM. The molecule `NC(CC(=O)NCc1ccc(C(F)(F)F)cc1)c1ccc(C(=O)Nc2ccncc2)cc1` (stereo not given) gave an IC50 of 50 to 500 nM. For the molecule `CC(Cc1c[nH]c2ccccc12)NC(=O)CC(N)c1ccc(C(=O)Nc2ccncc2)cc1` (stereo not given), the concentration for half-maximal inhibition (IC50) lay in the range of 50 to 500 nM. The value for `CCNC(=S)NCC(N)c1ccc(C(=O)Nc2ccncc2)cc1` (stereo not given) was 500 to 5000 nM.

`NC(c1ccc(C(=O)Nc2ccncc2)cc1)C1CCCN1C(=O)C1(c2ccc(F)cc2)CCCC1` (stereo not given) returned an IC50 of 500 to 5000 nM. For the molecule `CC(Cc1ccc(Cl)cc1)NC(=O)CC(N)c1ccc(C(=O)Nc2ccncc2)cc1` (stereo not given), the IC50 fell in the range of 50 to 500 nM.

In the case of `NC(c1ccc(C(=O)Nc2ccncc2)cc1)C1CCCN1C(=O)C(c1ccccc1)C1CCCCC1` (stereo not given), the IC50 is 500 to 5000 nM. Molecule `NC(CC(=O)Nc1ccc2[nH]ccc2c1)c1ccc(C(=O)Nc2ccncc2)cc1` (stereo not given) gave a 50% inhibitory concentration (IC50) of 50 to 500 nM. The value for `NC(CC(=O)NCc1cccc(Br)c1)c1ccc(C(=O)Nc2ccncc2)cc1` (stereo not given) was 50 to 500 nM; that for `NC(c1ccc(C(=O)Nc2ccncc2)cc1)C1CCCN1C(=O)C1CCc2ccccc21` (stereo not given) was 500 to 5000 nM. Under `NC(CNC(=O)CC(c1ccccc1)c1ccccc1)c1ccc(C(=O)Nc2ccncc2)cc1` (stereo not given) stands 50 to 500 nM; under `NC(c1ccc(C(=O)Nc2ccncc2)cc1)C1CCCN1C(=O)C1(c2ccc(Cl)c(Cl)c2)CCC1` (stereo not given), 500 to 5000 nM.

Take `N[C@@H](CNC(=O)C1(c2ccc(Cl)cc2)CC1)c1ccc(C(=O)Nc2ccncc2)cc1`: the half-inhibitory concentration (IC50) was in the range of 500 to 5000 nM.

Source of the values: the Kinase Knowledgebase extract (Sharma et al. 2016).
